Measured values published in PMC9516332 (Frontiers in Oncology, 2022).
Where two headings read alike, the source gives them in different places.

Tests used:
AP-1060 (ETV6-NTRK3) = test: Cell viability assay; settings: read-out: IC50 in cell proliferation assay
134 cancer cell lines = test: Cell viability assay (ATPlite, 72 hours), IC50 on cancer cell line panel

## CCn1c(=O)c(-c2cc(NC(=O)Nc3ccccc3)c(F)cc2Br)cc2cnc(NC)cc21 [ripretinib]
AP-1060 (ETV6-NTRK3)
  IC50: 2.83 µM
134 cancer cell lines; HEC-6, read-out: IC50 in cell proliferation assay
  IC50: 1.86 µM
134 cancer cell lines; Homo sapiens, 769-P, read-out: IC50 in cell proliferation assay
  IC50: 2.58 µM
134 cancer cell lines; Homo sapiens, 786-0, read-out: IC50 in cell proliferation assay
  IC50: 2.14 µM
134 cancer cell lines; Homo sapiens, A 172, read-out: IC50 in cell proliferation assay
  IC50: 4.96 µM
134 cancer cell lines; Homo sapiens, A204, read-out: IC50 in cell proliferation assay
  IC50: 0.52 µM
134 cancer cell lines; Homo sapiens, A498, read-out: IC50 in cell proliferation assay
  IC50: 1.14 µM
134 cancer cell lines; Homo sapiens, A549, read-out: IC50 in cell proliferation assay
  IC50: 2.69 µM
134 cancer cell lines; Homo sapiens, A704, read-out: IC50 in cell proliferation assay
  IC50: 2.21 µM
134 cancer cell lines; Homo sapiens, A-375, read-out: IC50 in cell proliferation assay
  IC50: 2.92 µM
134 cancer cell lines; Homo sapiens, A-427, read-out: IC50 in cell proliferation assay
  IC50: 1.52 µM
134 cancer cell lines; Homo sapiens, ACHN, read-out: IC50 in cell proliferation assay
  IC50: 1.47 µM
134 cancer cell lines; Homo sapiens, AN3-CA, read-out: IC50 in cell proliferation assay
  IC50: 1.01 µM
134 cancer cell lines; Homo sapiens, ASPC1, read-out: IC50 in cell proliferation assay
  IC50: 7.56 µM
134 cancer cell lines; Homo sapiens, AU565, read-out: IC50 in cell proliferation assay
  IC50: 3.75 µM
134 cancer cell lines; Homo sapiens, BT-20, read-out: IC50 in cell proliferation assay
  IC50: 7.43 µM
134 cancer cell lines; Homo sapiens, BT-474, read-out: IC50 in cell proliferation assay
  IC50: 2.23 µM
134 cancer cell lines; Homo sapiens, BT-549, read-out: IC50 in cell proliferation assay
  IC50: 4.51 µM
134 cancer cell lines; Homo sapiens, BXPC-3, read-out: IC50 in cell proliferation assay
  IC50: 1.51 µM
134 cancer cell lines; Homo sapiens, C-33-A, read-out: IC50 in cell proliferation assay
  IC50: 4.83 µM
134 cancer cell lines; Homo sapiens, CAL-27, read-out: IC50 in cell proliferation assay
  IC50: 9.8 µM
134 cancer cell lines; Homo sapiens, CCF-STTG1, read-out: IC50 in cell proliferation assay
  IC50: > 31.6 µM
134 cancer cell lines; Homo sapiens, CCRF-CEM, read-out: IC50 in cell proliferation assay
  IC50: 4.98 µM
134 cancer cell lines; Homo sapiens, COLO 205, read-out: IC50 in cell proliferation assay
  IC50: 1.87 µM
134 cancer cell lines; Homo sapiens, COLO-829, read-out: IC50 in cell proliferation assay
  IC50: 2.49 µM
134 cancer cell lines; Homo sapiens, DLD-1, read-out: IC50 in cell proliferation assay
  IC50: 1.54 µM
134 cancer cell lines; Homo sapiens, DU-145, read-out: IC50 in cell proliferation assay
  IC50: 1.97 µM
134 cancer cell lines; Homo sapiens, DU-4475, read-out: IC50 in cell proliferation assay
  IC50: 3.38 µM
134 cancer cell lines; Homo sapiens, Daoy, read-out: IC50 in cell proliferation assay
  IC50: 2.06 µM
134 cancer cell lines; Homo sapiens, DoTc2-4510, read-out: IC50 in cell proliferation assay
  IC50: 6.21 µM
134 cancer cell lines; Homo sapiens, EOL1, read-out: IC50 in cell proliferation assay
  IC50: 0.000634 µM
134 cancer cell lines; Homo sapiens, FaDu, read-out: IC50 in cell proliferation assay
  IC50: 3.05 µM
134 cancer cell lines; Homo sapiens, G-361, read-out: IC50 in cell proliferation assay
  IC50: 2.52 µM
134 cancer cell lines; Homo sapiens, HCC827, read-out: IC50 in cell proliferation assay
  IC50: 3.83 µM
134 cancer cell lines; Homo sapiens, HCC4006, read-out: IC50 in cell proliferation assay
  IC50: > 31.6 µM
134 cancer cell lines; Homo sapiens, HCT-15, read-out: IC50 in cell proliferation assay
  IC50: 2.56 µM
134 cancer cell lines; Homo sapiens, HCT-116, read-out: IC50 in cell proliferation assay
  IC50: 3.02 µM
134 cancer cell lines; Homo sapiens, HEC-1, read-out: IC50 in cell proliferation assay
  IC50: 1.36 µM
134 cancer cell lines; Homo sapiens, HEC-1B, read-out: IC50 in cell proliferation assay
  IC50: 0.426 µM
134 cancer cell lines; Homo sapiens, HL-60, read-out: IC50 in cell proliferation assay
  IC50: 1.81 µM
134 cancer cell lines; Homo sapiens, HT, read-out: IC50 in cell proliferation assay
  IC50: > 31.6 µM
134 cancer cell lines; Homo sapiens, HT-1080, read-out: IC50 in cell proliferation assay
  IC50: 1.7 µM
134 cancer cell lines; Homo sapiens, Hs746T, read-out: IC50 in cell proliferation assay
  IC50: 3.1 µM
134 cancer cell lines; Homo sapiens, Hs-578T, read-out: IC50 in cell proliferation assay
  IC50: 3.73 µM
134 cancer cell lines; Homo sapiens, HuTu80, read-out: IC50 in cell proliferation assay
  IC50: 1.58 µM
134 cancer cell lines; Homo sapiens, J82, read-out: IC50 in cell proliferation assay
  IC50: 2.3 µM
134 cancer cell lines; Homo sapiens, Jurkat E6.1, read-out: IC50 in cell proliferation assay
  IC50: 2.64 µM
134 cancer cell lines; Homo sapiens, K562, read-out: IC50 in cell proliferation assay
  IC50: 1.85 µM
134 cancer cell lines; Homo sapiens, KATO III, read-out: IC50 in cell proliferation assay
  IC50: 0.676 µM
134 cancer cell lines; Homo sapiens, KG-1, read-out: IC50 in cell proliferation assay
  IC50: 0.59 µM
134 cancer cell lines; Homo sapiens, KLE, read-out: IC50 in cell proliferation assay
  IC50: 9.98 µM
134 cancer cell lines; Homo sapiens, KMS-11, read-out: IC50 in cell proliferation assay
  IC50: 4.57 µM
134 cancer cell lines; Homo sapiens, KU812, read-out: IC50 in cell proliferation assay
  IC50: 0.85 µM
134 cancer cell lines; Homo sapiens, Kasumi 1, read-out: IC50 in cell proliferation assay
  IC50: 0.055 µM
134 cancer cell lines; Homo sapiens, LC-2-ad, read-out: IC50 in cell proliferation assay
  IC50: 5.38 µM
134 cancer cell lines; Homo sapiens, LNCaP-Clone-FGC, read-out: IC50 in cell proliferation assay
  IC50: 4.88 µM
134 cancer cell lines; Homo sapiens, LS174T, read-out: IC50 in cell proliferation assay
  IC50: 9.31 µM
134 cancer cell lines; Homo sapiens, LS-411N, read-out: IC50 in cell proliferation assay
  IC50: 2.72 µM
134 cancer cell lines; Homo sapiens, LoVo, read-out: IC50 in cell proliferation assay
  IC50: 3.04 µM
